Common to all, as to type: in vivo
Experiment [1] relates to larvae of the banded cucumber beetle (Diabrotica balteata). As to the kind of experiment: Diabrotica balteata spray test. The following applies: 168 h, application rate 100 g/ha (=32 μg/well), after 7 days, wheat seeds, read-out: activity (efficacy: seedlings grown). The method in brief:
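Wheat seeds germinated 1 day on agar were sprayed with compound diluted in water with 1000 ppm emulsifier, then infested with 10-20 Diabrotica balteata larvae. Efficacy in % scored after 7 days: 100% = seedlings grown as untreated, uninfected control; 0% = no seedlings grown.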

The subject of experiment [2] is adult flies Musca domestica strain WHO-N. As to the kind of experiment: Musca domestica test (MUSCDO surface treatment & contact assay). The following applies: 24 hours after contact, read-out: efficacy (mortality); for mortality at 20 mg/m2: surface concentration 20 mg/m^2, exposure 30 minutes. The procedure: Musca domestica Test (MUSCDO Surface Treatment & Contact Assay)
Solvent: Aceton+2000 ppm rapeseed oil methyl ester (RME)
In order to produce a sufficient, active ingredient containing solution it is necessary to solve the test compound in the solvent-mix (acetone at 2 mg/ml/RME 2000 ppm). This solution is pipetted onto a glazed tile and after evaporation of the acetone, adult flies of the species Musca domestica strain WHO-N are placed onto the dried surface. The exposure time is 30 minutes.
Mortality in percent (%) is determined 24 hours after contact of the insects to the treated surface. 100% mortality means that all tested insects are dead, whereas 0% means that no insect died.

In experiment [3] the test system is adult cat fleas (Ctenocephalides felis). The experiment can be described thus: Ctenocephalides felis in-vitro contact test, adult cat flea. Conditions: application rate 5 μg/cm^2 (=500 g/ha), after 48 hours, read-out: activity (efficacy: fleas dead or moribund). The method in brief:
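Acetone solutions of compound were coated onto inner walls of glass tubes (900 ppm giving 5 μg/cm^2) and dried; 5-10 adult C. felis were then held 48 h at room temperature. Efficacy = % fleas dead or moribund, judged by inability to escape a 45-50° C heating plate within 5 min.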

Experiment [4] has as its system Rhipicephalus (Boophilus) microplus larvae (strain Parkhurst, resistant against synthetic pyrethroids). As to the kind of experiment: Rhipicephalus (Boophilus) microplus in-vitro contact test, larval cattle tick. Conditions: after 48 hours, read-out: activity (efficacy: larvae dead or moribund); for pest or weed control at 1 µg/cm2, 100 g/ha: application rate 1 μg/cm^2 (=100 g/ha); for pest or weed control at 5 µg/cm2, 500 g/ha: application rate 5 μg/cm^2 (=500 g/ha). Put shortly:
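Acetone solutions were coated onto glass tube walls, giving 5 μg/cm^2 at 900 ppm. Once dry, 20–50 pyrethroid-resistant Parkhurst larvae were added per tube and held 48 h at 27 °C and 85% RH. Efficacy was scored by negative geotaxis as the percentage of dead or moribund larvae.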

Experiment [5] has as its system fall armyworm larvae (Spodoptera frugiperda). The experiment can be described thus: Spodoptera frugiperda spray test. The following applies: 168 h, application rate 100 g/ha, after 7 days, maize leaf sections. The method in brief: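 Maize leaf sections were sprayed with compound formulated in solvent and diluted in water containing 1000 ppm emulsifier, then infested with fall armyworm larvae after drying. Percent mortality was scored after 7 days (100% = all caterpillars dead, 0% = none).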

For experiment [6], the system named is adult brown dog ticks (Rhipicephalus sanguineus). The experiment can be described thus: Rhipicephalus sanguineus in-vitro contact test, adult brown dog ticks. The following applies: application rate 5 μg/cm^2 (=500 g/ha), after 48 hours, read-out: activity (efficacy: ticks dead or moribund). The method in brief: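 Compound in acetone was coated onto inner walls of glass tubes by rotation (2 h, 30 rpm); 900 ppm gives 5 μg/cm^2. After drying, 5-10 adult ticks were enclosed per tube at room temperature; after 48 h, heat-escape test at 45-50° C scored dead/moribund ticks as % efficacy.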

Experiment [7] has as its system brown planthopper (Nilaparvata lugens). As to the kind of experiment: Nilaparvata lugens spray test. Conditions: 96 h, after 4 days, rice plants; for mortality at 500 g/ha: application rate 500 g/ha. The procedure: Nilaparvata lugens—Spray Test
To produce a suitable preparation of active compound, 1 part by weight of active compound is mixed with the stated amount of solvents and is diluted with water, containing an emulsifier concentration of 1000 ppm, to the desired concentration. Further test concentrations are prepared by dilution with emulsifier containing water.
Rice plants (Oryza sativa) are sprayed with a preparation of the active ingredient of the desired concentration and the plants are infested with the brown planthopper (Nilaparvata lugens).
After 4 days mortality in % is determined. 100% means all planthoppers have been killed and 0% means none of the planthoppers have been killed.

Experiment [8] relates to larvae of the southern green stink bug (Nezara viridula). The experiment can be described thus: Nezara viridula spray test. The following applies: 96 h, after 4 days, barley plants; for mortality at 500 g/ha: application rate 500 g/ha, read-out: activity (mortality); for mortality at 100 g/ha: application rate 100 g/ha. Put shortly: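 Barley plants sprayed with the active compound in emulsifier-containing water, then infested with stink bug larvae. Mortality scored in % after 4 days, with 100% meaning all insects killed.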

In experiment [9] the test system is green peach aphid (Myzus persicae). As to the kind of experiment: Myzus persicae spray test. Conditions: foliar, 120 h, after 5 days, Chinese cabbage leaf disks; for mortality at 100 g/ha: application rate 100 g/ha, read-out: activity (mortality). The method in brief:
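Chinese cabbage leaf disks infested with all aphid instars were sprayed with compound diluted in water containing emulsifier (1000 ppm). Mortality (%) was scored after 5 days, 100% meaning all aphids killed.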

Experiment [10] has the same test system. As to the kind of experiment: Myzus persicae oral test. The following applies: 120 h, read-out: activity (mortality). The method in brief:
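Oral uptake format: water-diluted acetone concentrate of compound is blended into IPL41 medium carrying 33%+15% sugar and offered under a parafilm membrane. Percentage of dead insects is recorded after 5 days.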

Experiment [11] has as its system adult mosquitoes Aedes aegypti strain MONHEIM. As to the kind of experiment: Aedes aegypti test (AEDSAE surface treatment & contact assay). The following applies: 24 hours after contact, read-out: efficacy (mortality); for mortality at 20 mg/m2: surface concentration 20 mg/m^2, exposure 30 minutes. Put shortly:
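Compound in acetone (2 mg/ml) with 2000 ppm RME dried onto glazed tile; adults exposed to the treated surface for 30 min. Percent mortality scored 24 h after contact.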

[12] abbreviates: surface concentration 4 mg/m^2, exposure 30 minutes.

Molecules are shown by their SMILES.

As to `C[C@H](NC(=O)c1cc(C(F)(F)F)cc(C(F)(F)F)c1)c1ncnn1-c1ccc(C(=O)N2CC(C)(C)OC(C)(C)C2)cn1` [Example I-77], the pest or weed control at 32 µg/disc, 100 g/ha in experiment [1] was found to be 100%. Also, in [2], the mortality at 20 mg/m2 fell in the range of 80 to 100%. Also, the pest or weed control at 5 µg/cm2 in experiment [3] is 100%. Besides, the pest or weed control at 1 µg/cm2, 100 g/ha in experiment [4] amounted to 100%. Also, the pest or weed control at 5 µg/cm2, 500 g/ha turned out to be 100% in experiment [4] and 80% in experiment [6]. For the same compound, in experiment [5], the mortality at 100 g/ha was found to be 100%. The mortality at 500 g/ha in experiment [7] and in experiment [8] was 100% each time.
In the case of `CCc1nc([C@H](C)NC(=O)c2cc(Br)cc(OC(F)(F)F)c2)n(-c2ccc(C(=O)N3CCOCC3)cn2)n1` [Example I-134], the pest or weed control at 32 µg/disc, 100 g/ha in [1] turned out to be 100%. The mortality at 100 g/ha in experiment [9] was 90%; in experiment [5], 100%. For the same compound, the mortality at 500 g/ha in [7] and in experiment [8] was 100% each time.
As to `CCc1nc([C@H](C)NC(=O)c2cc(C(F)(F)F)cc(C(F)(F)F)c2)n(-c2ccc(C(=O)N3C[C@@H](C)O[C@@H](C)C3)cn2)n1` [Example I-130], the pest or weed control at 32 µg/disc, 100 g/ha in experiment [1] came to 100%. Also, the mortality at 4 mg/m2 in experiment [2] (setting [12]) lay in the range of 80 to 100%. Besides, in experiment [2], the mortality at 20 mg/m2 lay in the range of 80 to 100%. Also, the mortality at 100 g/ha worked out at 90% in [9] and 100% in experiment [5]. Further, the pest or weed control at 5 µg/cm2 in [3] was determined as 100%. Besides, the pest or weed control at 1 µg/cm2, 100 g/ha in [4] came to 100%. The pest or weed control at 5 µg/cm2, 500 g/ha in [4] and in experiment [6] was 100% in each case. For the same compound, the mortality at 500 g/ha in [7] and in [8] was 100% throughout.
For the compound `C[C@H](NC(=O)c1cc(C(F)(F)F)cc(S(C)(=O)=O)c1)c1ncnn1-c1ccc(C(=O)N2CCOCC2)cn1` [Example I-102], in experiment [1], the pest or weed control at 32 µg/disc, 100 g/ha is 100%. For the same compound, the mortality at 100 g/ha in [9] was found to be 90%; in experiment [5] it was 100%; in experiment [7] (application rate 100 g/ha) it was 90%; in [8], 100%. The mortality at 4 ppm in [10] was found to be 100%. The pest or weed control at 5 µg/cm2 in experiment [3] was found to be 80%. For the same compound, the mortality at 4 mg/m2 in experiment [11] (setting [12]) was in the range of 80 to 100%. Also, the mortality at 20 mg/m2 in [11] lay within 80 to 100%.
On to `Cc1nc([C@H](C)NC(=O)c2cc(C(F)(F)F)cc(C(F)(F)F)c2)n(-c2cnc(C(=O)N3C[C@@H](C)O[C@@H](C)C3)cn2)n1` [Example I-138], for which the pest or weed control at 32 µg/disc, 100 g/ha in experiment [1] stood at 100%. Besides, the mortality at 20 mg/m2 in experiment [2] was in the range of 80 to 100%. Besides, the mortality at 100 g/ha is 90% in experiment [9] and 100% in [5]. Also, the pest or weed control at 5 µg/cm2 in experiment [3] came to 100%. In [4], the pest or weed control at 1 µg/cm2, 100 g/ha amounted to 100%. Also, the pest or weed control at 5 µg/cm2, 500 g/ha in experiment [4] and in experiment [6] was 100% in each case. Further, the mortality at 500 g/ha in [7] and in experiment [8] was 100% throughout.
Take `C[C@H](NC(=O)c1cc(Cl)cc(S(C)(=O)=O)c1)c1ncnn1-c1ccc(C(=O)N2C[C@H](C)O[C@@H](C)C2)cn1` [Example I-122]: the mortality at 500 g/ha in [9] (application rate 500 g/ha) was determined as 90%; in experiment [7], 90%; in experiment [8] it was 100%. In addition, the mortality at 4 ppm in experiment [10] came to 100%. In addition, the pest or weed control at 5 µg/cm2 in [3] is 80%. In experiment [8], this compound gave a mortality at 100 g/ha of 90%.
On to `CCc1nc([C@H](C)NC(=O)c2cc(C(F)(F)F)cc(C(F)(F)F)c2)n(-c2ccc(C(=O)N3CCOCC3)cn2)n1` [Example I-131], for which, in experiment [1], the pest or weed control at 32 µg/disc, 100 g/ha came to 100%. The mortality at 20 mg/m2 in experiment [2] and in experiment [11] was 80 to 100% throughout. Besides, the mortality at 100 g/ha came to 90% in experiment [9] and 100% in experiment [5]. Moreover, the pest or weed control at 5 µg/cm2 in [3] was 100%. Besides, the pest or weed control at 1 µg/cm2, 100 g/ha in experiment [4] worked out at 100%. In addition, the pest or weed control at 5 µg/cm2, 500 g/ha in experiment [4] and in experiment [6] was 100% in each case. For the same compound, the mortality at 500 g/ha in experiment [7] and in experiment [8] was 100% each time.
As to `Cc1nc([C@H](C)NC(=O)c2cc(C(F)(F)F)cc(C(F)(F)F)c2)n(-c2ccc(C(=O)N3CC(C)(C)OC(C)(C)C3)cn2)n1` [Example I-78], the pest or weed control at 1 µg/cm2, 100 g/ha in [4] was 100%. For the same compound, the pest or weed control at 5 µg/cm2, 500 g/ha in experiment [4] and in experiment [6] was 100% throughout. The mortality at 100 g/ha in [5] worked out at 100%. The mortality at 500 g/ha in experiment [7] and in experiment [8] was 100% throughout.
As to `C[C@H](NC(=O)c1cc(C(F)(F)F)cc(C(F)(F)F)c1)c1ncnn1-c1ccc(C(=O)N2CC(=O)NC(=O)C2)cn1` [Example I-80], the mortality at 500 g/ha in [7] turned out to be 90%; in experiment [8], 100%.

The values are drawn from patent publication US20230058623A1, “NOVEL HETEROARYL-TRIAZOLE COMPOUNDS AS PESTICIDES” (Bayer Aktiengesellschaft, priority 2019, published 2023).
